In series [1] the target is T1, recombinant human (rh) PDE5A (Homo sapiens, UniProt O76074).
T1 construct: GST; purchased SIGMA E9034
The series can be described thus: Phosphodiesterase-5 activity assay (radiometric SPA). In kind it is biochemical. Particulars: rhPDE5A1, 0.5 μM cGMP, 20 min at 37° C.

The nature of series [2]: Human plasma protein binding. In kind it is in vitro ADME. Particulars: for fraction unbound: human. How it is done: An aliquot of 200 μL of human plasma containing test compound was spiked into donor well (red chamber) of the insert. 350 μL of PBS was spiked into receiver well (white chamber) of the insert.
The samples were matrix equilibrated with opposite matrix (25 μL of plasma/buffer sample was matched with 25 μL of blank buffer/plasma). Matrix matched samples were precipitated with 200 μL of acetonitrile containing internal standard. Samples were vortexed at 1000 rpm for 5 min and centrifuged at 4000 rpm for 10 min. Supernatant was separated, diluted 2 fold with water and analysed in LC-MS/MS. (Table 2).

A further series has as its system Human Platelets. Nature of the series: Total cGMP in human platelets. Particulars: for Ratio Maximum cGMP increase vs Baseline: 1 μM riociguat and 100 nM BAY 190954, incubation 2 h; for Concentration (nM) for 3-fold cGMP or 2-fold* increase vs Baseline: 2-fold increase (values marked *), 1 μM riociguat, 100 nM BAY 190954. The class given is cell-based. How it is done:
Effects of test and reference compounds on total cGMP in human platelets were investigated as described by Dunkern and Hatzelmann (Cell Signal. 17: 331-9, 2005) with modifications. Briefly, buffy coats (acquired form SRK Blutspende Zurich) were 4-fold diluted in 150 mM sodium chloride solution containing 0.9% sodium citrate and centrifuged at 200 g for 10 min. The resulting platelet-rich plasma was supplemented with a 1/10 volume of ACD solution (85 mM sodium citrate, 111 mM D-glucose, 71 mM citric acid, pH 4.4) and apyrase (Sigma AG) to a final concentration of 2 U/ml. After another centrifugation (1400 g, 10 min) the cellular pellet was resuspended in Ca2+/Mg2+-free Hepes-Tyrode buffer (134 mM NaCl, 12 mM NaHCO3, 2.9 mM KCl, 0.36 mM NaH2PO4, 5 mM HEPES, 5 mM glucose, 0.5% (w/v) bovine serum albumin, pH 7.4) and platelets were counted.
Platelets were used at 9×10^7 cells in 100 μl per well and after adding test and reference compounds the incubation volume was 200 μl per well in Hepes-Tyrode. Experiments in platelets were done in presence of 1 μM riociguat and 100 nM BAY 190954 (PDE2 inhibitor) (Lucerna Chem AG) and test/reference compounds were added after a preincubation time of 15 min. At the end of the incubation time (see below) the reaction was terminated by adding 20 μl of 2N HCl per well. Following a 20 sec on a plate shaker (300 rpm) the plate was left for 15 min and then centrifuged at 1000×g for 5 min. Supernatants were stored at −80° C.
cGMP was determined by a commercially available ELISA kit (Direct cGMP ELISA kit, Enzo Life Sciences AG, Lauren, Switzerland) with a lower detection limit of 0.08 pmol/ml using the acetylation protocol following manufacturer's instructions. Results are given as the means from at least two independent experiments each in triplicate.
To study concentration-dependent effects on total cGMP test and reference compounds were investigated from 0.1 nM to 1 μM in half-logarithmic steps with an incubation time of 2 h. To examine the time course the incubation times were (min) 10, 30, 60, 90, 120 at 1 μM of test or reference compound.
Compounds were diluted from stock solutions in DMSO. The final concentration of DMSO in all wells including the vehicle controls was 0.2% for human trabecular meshwork and rat aortic smooth muscle cells and 0.3% for platelets.
From time course experiments, the time to half of the maximum cGMP increase with 1 μM of test compound has been extrapolated (t0.5max).

For series [3], the system named is Human Trabecular Meshwork Cells. The series can be described thus: Cellular cGMP assay in human trabecular meshwork cells. The class given is cell-based. Particulars: HTMC, 10 μM Riociguat; for Concentration (nM) for 3-fold or 2-fold* cGMP increase vs Baseline: 2-fold increase (values marked *); for Ratio Maximum cGMP increase vs Baseline: 5 mM GSH, incubation 2 h.

The mark [4] stands for this setting: read-out: % Unbound in human plasma.
The mark [5] stands for this setting: read-out: % Bound in human plasma (converted).

Where two headings read alike, the source gives them in different places.

The values below come from US12502393B2, “Dual mode of action soluble guanylate cyclase activators and phosphodiesterase inhibitors and uses thereof” (TOPADUR PHARMA AG, priority 2018, dated 2025).

As a reminder, the IC50 is the concentration needed to halve the response being measured.

As to `CCCc1nc(C)c2c(=O)[nH]c(-c3cc(S(=O)(=O)N4CCC(C(O)(CCO[N+](=O)[O-])CCO[N+](=O)[O-])CC4)ccc3OCC)nn12` [Compound 2h, 3-(1-((4-ethoxy-3-(5-methyl-4-oxo-7-propyl-3,4-dihydroimidazo[5,1-f][1,2,4]triazin-2-yl)phenyl)sulfonyl)piperidin-4-yl)-3-hydroxypentane-1,5-diyl dinitrate], the IC50 in series [1] came to 1 nM. In series [2], the “% Bound in human plasma” value is listed as 99.77%. Further, the fraction unbound in series [2] (setting [4]) amounted to 0.0023. The “Ratio Maximum cGMP increase vs Baseline” value with Human Platelets was 171.3.
`CCCc1nc(C)c2c(=O)[nH]c(-c3cc(S(=O)(=O)N4CCC(C(O)(CCO)CCO[N+](=O)[O-])CC4)ccc3OCC)nn12` (stereo not drawn) [Compound 2g, 3-(1-((4-ethoxy-3-(5-methyl-4-oxo-7-propyl-3,4-dihydroimidazo[5,1-f][1,2,4]triazin-2-yl)phenyl)sulfonyl)piperidin-4-yl)-3,5-dihydroxypentyl nitrate]: in series [1], the IC50 stood at 0.37 nM. Moreover, in series [2], the “% Bound in human plasma” value was 98.29%. In series [2] (setting [4]), the fraction unbound stood at 0.0171. Besides, in series [3], the “Concentration (nM) for 3-fold or 2-fold* cGMP increase vs Baseline” value is listed as 22.2* nM. Further, the results for the “Ratio Maximum cGMP increase vs Baseline” value (in series [3]; in the series on Human Platelets) were 109.1 and 183.5, respectively.
`CCCc1nn(C)c2c(=O)[nH]c(-c3cc(S(=O)(=O)N4CCC(C(O)C(CO)CO)CC4)ccc3OCC)nc12` (stereo not drawn) [Compound 22, 5-(5-((4-(1,3-dihydroxy-2-(hydroxymethyl)propyl)piperidin-1-yl)sulfonyl)-2-ethoxyphenyl)-1-methyl-3-propyl-1,6-dihydro-7H-pyrazolo[4,3-d]pyrimidin-7-one]: the IC50 in series [1] was found to be 8.5 nM. Further, the fraction unbound in series [2] (setting [5]) and in series [2] (setting [4]) was 0.036 each time.
As to `CCCc1nc(C)c2c(=O)[nH]c(-c3cc(S(=O)(=O)N4CCC(CC(C)(CO)CO)CC4)ccc3OCC)nn12` [Compound 47, 2-(2-ethoxy-5-((4-(3-hydroxy-2-(hydroxymethyl)-2-methylpropyl)piperidin-1-yl)sulfonyl)phenyl)-5-methyl-7-propylimidazo[5,1-f][1,2,4]triazin-4(3H)-one], the IC50 in series [1] came to 0.022 nM. Besides, the “Ratio Maximum cGMP increase vs Baseline” value with Human Platelets was 39.0.
On to `CCCc1nc(C)c2c(=O)[nH]c(-c3cc(S(=O)(=O)N4CCC(CC(C)(CO[N+](=O)[O-])CO[N+](=O)[O-])CC4)ccc3OCC)nn12` [Compound 2o, 2-((1-((4-ethoxy-3-(5-methyl-4-oxo-7-propyl-3,4-dihydroimidazo[5,1-f][1,2,4]triazin-2-yl)phenyl)sulfonyl)piperidin-4-yl)methyl)-2-methylpropane-1,3-diyl dinitrate], for which the IC50 in series [1] came to 0.52 nM. The “% Bound in human plasma” value in series [2] was 99.95%. Besides, the fraction unbound in series [2] (setting [4]) is 0.0005. In series [3], the “Concentration (nM) for 3-fold or 2-fold* cGMP increase vs Baseline” value is given as 1.9* nM and the “Ratio Maximum cGMP increase vs Baseline” value worked out at 86.9. Besides, in the series with Human Platelets, the “Ratio Maximum cGMP increase vs Baseline” value was found to be 202.8 and the “Concentration (nM) for 3-fold cGMP or 2-fold* increase vs Baseline” value is reported as 120* nM.
In the case of `CCCc1nc(C)c2c(=O)[nH]c(-c3cc(S(=O)(=O)N4CCC(CC(CO)CO)CC4)ccc3OCC)nn12` [Compound 43, 2-(2-ethoxy-5-(4-(3-hydroxy-2-(hydroxymethyl)propyl)piperidin-1-ylsulfonyl)phenyl)-5-methyl-7-propylimidazo[1,5-f][1,2,4]triazin-4(3H)-one], the IC50 in series [1] came out at 0.13 nM. The fraction unbound in series [2] (setting [5]) and in series [2] (setting [4]) was 0.022 throughout. The “Ratio Maximum cGMP increase vs Baseline” value in the series on Human Platelets is given as 28.5.
Take `CCCc1nc(C)c2c(=O)[nH]c(-c3cc(S(=O)(=O)N4CCC(CC(CO)CO[N+](=O)[O-])CC4)ccc3OCC)nn12` (stereo not drawn) [Compound 2n, 3-(1-((4-ethoxy-3-(5-methyl-4-oxo-7-propyl-3,4-dihydroimidazo[5,1-f][1,2,4]triazin-2-yl)phenyl)sulfonyl)piperidin-4-yl)-2-(hydroxymethyl)propyl nitrate]: the IC50 in series [1] turned out to be 0.47 nM. Moreover, the “% Bound in human plasma” value in series [2] stood at 99.48%. In addition, the fraction unbound in series [2] (setting [4]) was 0.0052. In the series on Human Platelets, the “Ratio Maximum cGMP increase vs Baseline” value is given as 161.0.
The like results for `CCCc1nc(C)c2c(=O)[nH]c(-c3cc(S(=O)(=O)N4CCC(CC(CO[N+](=O)[O-])CO[N+](=O)[O-])CC4)ccc3OCC)nn12` [Compound 2m, 2-((1-((4-ethoxy-3-(5-methyl-4-oxo-7-propyl-3,4-dihydroimidazo[5,1-f][1,2,4]triazin-2-yl)phenyl)sulfonyl)piperidin-4-yl)methyl)propane-1,3-diyl dinitrate] were, in that order, 0.44 nM, 99.92%, 0.0008 and 262.3.
For `CCCc1nc(C)c2c(=O)[nH]c(-c3cc(S(=O)(=O)N4CCC(CC(C)(CO)CO[N+](=O)[O-])CC4)ccc3OCC)nn12` (stereo not drawn) [Compound 2p, 3-(1-((4-ethoxy-3-(5-methyl-4-oxo-7-propyl-3,4-dihydroimidazo[5,1-f][1,2,4]triazin-2-yl)phenyl)sulfonyl)piperidin-4-yl)-2-(hydroxymethyl)-2-methylpropyl nitrate], in series [1], the IC50 is 0.11 nM. Moreover, the “% Bound in human plasma” value in series [2] turned out to be 99.66%. Moreover, in series [2] (setting [4]), the fraction unbound worked out at 0.0034. Also, in series [3], the “Concentration (nM) for 3-fold or 2-fold* cGMP increase vs Baseline” value was 1.4* nM and the “Ratio Maximum cGMP increase vs Baseline” value is recorded as 46.1. For the same compound, in the series with Human Platelets, the “Ratio Maximum cGMP increase vs Baseline” value is reported as 204.1 and the “Concentration (nM) for 3-fold cGMP or 2-fold* increase vs Baseline” value is on record as 102* nM.
Take `CCCc1nc(C)c2c(=O)[nH]c(-c3cc(S(=O)(=O)N4CCC(C(O)(CCO)CCO)CC4)ccc3OCC)nn12` [Compound 28, 2-(2-ethoxy-5-((4-(1,3,5-trihydroxypentan-3-yl)piperidin-1-yl)sulfonyl)phenyl)-5-methyl-7-propylimidazo[5,1-f][1,2,4]triazin-4(3H)-one]: in series [1], the IC50 was 0.19 nM. For the same compound, the fraction unbound in series [2] (setting [5]) and in series [2] (setting [4]) was 0.069 throughout.
Turning to `CCCc1nc(C)c2c(=O)[nH]c(-c3cc(S(=O)(=O)N4CCC([C@H](O)CO[N+](=O)[O-])CC4)ccc3OCC)nn12` [Compound 2d, (S)-2-(1-((4-ethoxy-3-(5-methyl-4-oxo-7-propyl-3,4-dihydroimidazo[5,1-f][1,2,4]triazin-2-yl)phenyl)sulfonyl)piperidin-4-yl)-2-hydroxyethyl nitrate], in series [1], the IC50 is 0.16 nM. Further, the fraction unbound in series [2] (setting [5]) and in series [2] (setting [4]) was 0.0173 throughout.
For `CCCc1nc(C)c2c(=O)[nH]c(-c3cc(S(=O)(=O)N4CCC(C(O)C(CO[N+](=O)[O-])CO[N+](=O)[O-])CC4)ccc3OCC)nn12` (stereo not drawn) [Compound 2i, 2-((1-((4-ethoxy-3-(5-methyl-4-oxo-7-propyl-3,4-dihydroimidazo[5,1-f][1,2,4]triazin-2-yl)phenyl)sulfonyl)piperidin-4-yl)(hydroxy)methyl)propane-1,3-diyl dinitrate], the IC50 in series [1] is 1.5 nM. Also, the “% Bound in human plasma” value in series [2] was found to be 99.99%. Besides, the fraction unbound in series [2] (setting [4]) stood at 0.0001. For the same compound, in the series with Human Platelets, the “Ratio Maximum cGMP increase vs Baseline” value amounted to 932.9.
